For 17 molecules, EC50 results are on record in patent publication US10676458B2, “Antidiabetic bicyclic compounds” (Merck Sharp & Dohme Corp., priority 2016, dated 2020).

This assay has as its target human GPR40 (Homo sapiens (Human), UniProt O14842). The assay is described as follows: Inositol Phosphate Turnover (IP1) Assay. The assay is classed as cell-based. The following applies: HEK cells stably expressing human GPR40; 60 min incubation; CisBio IP-One kit. The method, then: Human GPR40 stable cell-lines were generated in HEK cells. The expression plasmids were transfected using lipofectamine (Life Technologies) following manufacturer's instructions. Stable cell-lines were generated following drug selection and single cell cloning.
The assay was performed in 384-well format. HEK cells stably expressing human GPR40 were plated at 7500 cells per well in growth medium (DMEM/10% fetal calf serum). Cell plates were then incubated 16 hours at 37 degrees in a 5% CO2 incubator. Measurement of Inositol Phosphate Turnover (IP1) was performed using the CisBio IP-One kit (Part number 62IPAPEB). After the 16 hour incubation, the growth media was removed by centrifugation using the BlueWasher (AusWasher GUI Ver. v1.0.1.8) Protocol #21-“Light Dry” and 10 ul of stimulation buffer (prepared as described in the kit) was added to each well. In a separate plate, compounds were diluted in DMSO (200-fold over the final concentration in the assay well) and 50 nl was acoustically transferred to the appropriate well in the assay cell plate. The plates were then incubated for 60 minutes at 37 degrees in a 5% CO2 incubator. 10 ul of detection buffer (also prepared as described in the IP-One kit) was added to each well and the plates were incubated at room temperature for 60 minutes in the dark. The plates were then read in a Perkin Elmer EnVision or equivalent reader able to measure FRET. Fluorescent ratio of emission at 665 and 620 nm was then converted to IP1 concentration by back calculating from an IP1 standard curve prepared at the time of the assay. Data was normalized to % activity using a reference compound and EC50s determined using a standard 4-paramter fit.

Chain of human GPR40 (O14842 whole entry): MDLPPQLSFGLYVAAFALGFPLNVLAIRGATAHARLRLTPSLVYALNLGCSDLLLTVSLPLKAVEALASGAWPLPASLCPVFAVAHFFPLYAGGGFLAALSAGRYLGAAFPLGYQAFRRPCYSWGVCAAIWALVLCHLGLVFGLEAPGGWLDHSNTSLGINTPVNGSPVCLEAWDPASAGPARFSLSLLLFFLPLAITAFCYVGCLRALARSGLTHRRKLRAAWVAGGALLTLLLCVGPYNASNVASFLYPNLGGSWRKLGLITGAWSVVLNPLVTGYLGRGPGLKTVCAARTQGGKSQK

As for `C[C@H](C(=O)O)[C@H](c1ccc2c(c1)NC(C1CCN(Cc3cc(C(F)(F)F)ccc3C(F)(F)F)CC1)CO2)C1CC1` (single isomer, unassigned) [Example 2, Sodium (2S,3S)-3-((R or S)-3-(1-(2,5-Bis(trifluoromethyl)-benzyl)piperidin-4-yl)-3,4-dihydro-2H-benzo[b][1,4]oxazin-6-yl)-3-cyclopropyl-2-methyl propanoate], the EC50 (commonly the concentration needed to bring the measured effect to its halfway point) stood at 388 nM.
Take `C[C@H](C(=O)O)[C@H](c1ccc2c(c1)NC(C1CCN(Cc3cc(C(F)(F)F)ccc3C(F)(F)F)CC1)CO2)C1CC1` (single isomer, unassigned) [Example 3, Sodium (2S,3R)-methyl 3-((S or R)-3-(1-(2,5-bis(trifluoro-methyl)-benzyl)-piperidin-4-yl)-3,4-dihydro-2H-benzo[b]-[1,4]oxazin-6-yl)-3-cyclopropyl-2-methylpropanoate]: the EC50 turned out to be 642 nM.
Next, `C[C@H](C(=O)O)C(c1ccc2c(c1)N(C)C(C1CCN(Cc3cc(C(F)(F)F)ccc3C(F)(F)F)CC1)CO2)C1CC1` (single isomer, unassigned) [Example 4, Sodium (2S,3S)-3-((R or S)-3-(1-(2,5-bis(trifluoromethyl)benzyl)piperidin-4-yl)-4-methyl-3,4-di-hydro-2H-benzo[b][1,4]oxazin-6-yl)-3-cyclopropyl-2-methylpropanoate]: 4700 nM.
With `C[C@H](C(=O)O)[C@H](c1ccc2c(c1)N(C)C(C1CCN(Cc3cc(C(F)(F)F)ccc3C(F)(F)F)CC1)CO2)C1CC1` (single isomer, unassigned) [Example 5, Sodium (2S,3S)-3-((S or R)-3-(1-(2,5-bis(trifluoro-methyl)-benzyl)piperidin-4-yl)-4-methyl-3,4-dihydro-2H-benzo[b]-[1,4]oxazin-6-yl)-3-cyclopropyl-2-methyl propanoate], a half-maximal effect (EC50) was put at 2100 nM.
Next, `C[C@H](C(=O)O)[C@H](c1ccc2c(c1)NC(C1CCN(Cc3cc(C(F)(F)F)ccc3C(F)(F)F)CC1)CC2)C1CC1` (single isomer, unassigned) [Example 6, Sodium (2S,3R)-3-((R or S)-2-(1-(2,5-bis(trifluoromethyl)benzyl)piperidin-4-yl)-1,2,3,4-tetrahydroquinolin-7-yl)-3-cyclopropyl-2-methylpropanoate]: 35 nM; `C[C@H](C(=O)O)[C@H](c1ccc2c(c1)NC(C1CCN(Cc3cc(C(F)(F)F)ccc3C(F)(F)F)CC1)CC2)C1CC1` (single isomer, unassigned) [Example 7, Sodium (2S,3R)-3-((S or R)-2-(1-(2,5-bis(tri-fluoromethyl)-benzyl)-piperidin-4-yl)-1,2,3,4-tetrahydroquin-olin-7-yl)-3-cyclo-propyl-2-methyl propanoate]: 99 nM; `C[C@H](C(=O)O)[C@H](c1ccc2c(c1)N(C)C(C1CCN(Cc3cc(C(F)(F)F)ccc3C(F)(F)F)CC1)CC2)C1CC1` (single isomer, unassigned) [Example 8, (2S,3R)-3-((R or S)-2-(1-(2,5-bis(trifluoromethyl)benzyl)piperidin-4-yl)-1-methyl-1,2,3,4-tetrahydroquinolin-7-yl)-3-cyclopropyl-2-methylpropanoic acid]: 439 nM.
Then `C[C@H](C(=O)O)[C@H](c1ccc2c(c1)N(C)C(C1CCN(Cc3cc(C(F)(F)F)ccc3C(F)(F)F)CC1)CC2)C1CC1` (single isomer, unassigned) [Example 9, (2S,3R)-3-((S or R)-2-(1-(2,5-bis(trifluoromethyl)-benzyl)piperidin-4-yl)-1-methyl-1,2,3,4-tetrahydroquinolin-7-yl)-3-cyclopropyl-2-methyl propanoic acid], with 289 nM.
Regarding `COc1ccc(F)c(-c2ccc(C3CCc4ccc([C@H](C5CC5)[C@H](C)C(=O)O)cc4N3)cc2)c1` (single isomer, unassigned) [Example 11, Sodium (2S,3R)-3-cyclopropyl-3-((R or S)-2-(2′-fluoro-5′-methoxy-[1,1′-biphenyl]-4-yl)-1,2,3,4-tetrahydroquinolin-7-yl)-2-methylpropanoate], the EC50 is 0.79 nM.
Next, `COc1ccc(F)c(-c2ccc(C3CCc4ccc([C@H](C5CC5)[C@H](C)C(=O)O)cc4N3)cc2)c1` (single isomer, unassigned) [Example 12, (2S,3R)-3-cyclopropyl-3-((S or R)-2-(2′-fluoro-5′-methoxy-[1,1′-biphenyl]-4-yl)-1,2,3,4-tetrahydroquinolin-7-yl)-2-methylpropanoic acid]: 0.2 nM.
Next, `COc1ccc(F)c(-c2ccc(C3CCc4ccc([C@H](C5CC5)[C@H](C)C(=O)O)cc4N3C)cc2)c1` (single isomer, unassigned) [Example 14, (2S,3R)-3-cyclopropyl-3-((R or S)-2-(2′-fluoro-5′-methoxy-[1,1′-biphenyl]-4-yl)-1-methyl-1,2,3,4-tetrahydroquinolin-7-yl)-2-methylpropanoic acid]: 1 nM; `COc1ccc(F)c(-c2ccc(C3CCc4ccc([C@H](C5CC5)[C@H](C)C(=O)O)cc4N3C)cc2)c1` (single isomer, unassigned) [Example 15, (2S,3R)-3-cyclopropyl-3-((S or R)-2-(2′-fluoro-5′-methoxy-[1,1′-biphenyl]-4-yl)-1-methyl-1,2,3,4-tetrahydroquinolin-7-yl)-2-methylpropanoic acid]: 12 nM; `COc1ccc(F)c(-c2ccc(C3COc4ccc([C@H](C5CC5)[C@H](C)C(=O)O)cc4N3)cc2)c1` (single isomer, unassigned) [Example 17, Sodium (2S,3R)-3-cyclopropyl-3-((R or S)-3-(2′-fluoro-5′-methoxy-[1,1′-biphenyl]-4-yl)-3,4-dihydro-2H-benzo[b][1,4]oxazin-6-yl)-2-methyl propanoate]: 10 nM.
In the case of `COc1ccc(F)c(-c2ccc(C3COc4ccc([C@H](C5CC5)[C@H](C)C(=O)O)cc4N3)cc2)c1` (single isomer, unassigned) [Example 18, Sodium (2S,3R)-3-cyclopropyl-3-((S or R)-3-(2′-fluoro-5′-methoxy-[1,1′-biphenyl]-4-yl)-3,4-dihydro-2H-benzo[b][1,4]oxazin-6-yl)-2-methyl propanoate], the EC50 came to 0.8 nM.
Next, `COc1ccc(F)c(-c2ccc(C3COc4ccc([C@H](C5CC5)[C@H](C)C(=O)O)cc4N3C)cc2)c1` (single isomer, unassigned) [Example 20, Sodium (2S,3R)-3-cyclopropyl-3-((R or S)-3-(2′-fluoro-5′-methoxy-[1,1′-biphenyl]-4-yl)-4-methyl-3,4-dihydro-2H benzo-[b][1,4]oxazin-6-yl)-2-methyl propanoate]: 0.8 nM; `COc1ccc(F)c(-c2ccc(C3COc4ccc([C@H](C5CC5)[C@H](C)C(=O)O)cc4N3C)cc2)c1` (single isomer, unassigned) [Example 21, Sodium (2S,3R)-3-cyclopropyl-3-((S or R)-3-(2′-fluoro-5′-methoxy-[1,1′-biphenyl]-4-yl)-4-methyl-3,4-dihydro-2H-benzo[b][1,4]oxazin-6-yl)-2-methyl propanoate]: 12 nM; `C[C@H](C(=O)O)[C@H](c1ccc2c(c1)CN(C1CCN(Cc3cc(C(F)(F)F)ccc3C(F)(F)F)CC1)CC2)C1CC1` [Example 1, (2S,3R)-3-(2-(1-(2,5-bis(Trifluoromethyl)benzyl)piperidin-4-yl)-1,2,34-tetrahydroisoquinolin-7-yl)-3-cyclopropyl-2-methylpropanoic acid]: 611 nM.
